pEC50, pIC50: −log10 of the molar value.

The values that follow come from patent US20260078103A1, “ISOQUINOLONES AS PI3K INHIBITORS” (OnKure, Inc., priority 2022, published 2026).

The subject of one experiment is T47D cells expressing mutant PI3Ka (H1047R). As to the kind of experiment: In vitro cell proliferation, T47D cells (CellTiter-Glo). Format: cell-based. The conditions noted are these: Homo sapiens, T47D, 72 h, inhibition of proliferation, read-out: Avg T-47D EC50. A digest of the protocol:
(§1)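 EC50 values derive from a four-parameter logistic fit of luminescence-based (CellTiter-Glo) inhibition, referenced to 0.1% DMSO and 10 uM Alpelisib controls. Compound exposure lasted 72 h at 37 °C.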
`Cc1cc([C@@H](C)Nc2ccc(Cl)nc2C(=O)O)c2cc(-c3cnc(C(F)(F)F)nc3)n(C)c(=O)c2c1` [Example 376]: the pEC50 was 6.30 to 9.00.

With `C[C@@H](Nc1ccccc1C(=O)O)c1cc(F)cc2c(=O)n(C)c(-c3cnc(-c4ccc(F)cn4)c(F)c3)cc12` [Example 378], the pEC50 is 6.30 to 9.00.

As for `C[C@@H](Nc1cccc(F)c1C(=O)O)c1cc(F)cc2c(=O)n(C)c(-c3ccc(OC4CC4)nc3)cc12` [Example 379], the pEC50 was 6.30 to 9.00.

On to `Cc1cc([C@@H](C)Nc2ccccc2C(=O)O)c2cc(-c3cnc(C(F)(F)F)cn3)n(C)c(=O)c2c1` [Example 382], for which the pEC50 was 6.30 to 9.00.

As to `Cc1cc([C@@H](C)Nc2ccccc2C(=O)O)c2cc(-c3ncc(C(F)(F)F)cn3)n(C)c(=O)c2c1` [Example 383], the negative-log EC50 (pEC50) was 6.30 to 9.00.

As for `Cc1cc([C@@H](C)Nc2ccccc2C(=O)O)c2cc(-c3cnc(CF)cn3)n(C)c(=O)c2c1` [Example 393], the negative-log EC50 (pEC50) is 6.30 to 9.00.

Staying with this experiment, now noted: inhibition of proliferation, 72 hours, read-out: Avg T-47D EC50.
Take `C#Cc1ccc(N[C@H](C)c2cc(C)cc3c(=O)n(C)c(-c4cnc(C(F)(F)F)nc4)cc23)c(C(=O)O)n1` [Example 375]: the pEC50 is 6.30 to 9.00.

As for `Cc1cc([C@@H](C)Nc2cnc(Cl)nc2C(=O)O)c2cc(N3CCN(CC(F)(F)F)CC3)n(C)c(=O)c2c1` [Example 377], the pEC50 was 4.82 to 5.70.

For `Cc1cc([C@@H](C)Nc2ccccc2C(=O)O)c2cc(N3CCN(c4ccc(CF)nc4)CC3)n(C)c(=O)c2c1` [Example 381], the pEC50 is 6.30 to 9.00.

As for `Cc1cc([C@@H](C)Nc2ccc(F)nc2C(=O)O)c2cc(-c3cnc(C(F)(F)F)nc3)n(C)c(=O)c2c1` [Example 387], the pEC50 was 6.30 to 9.00.

As for `CC(Nc1cccc(F)c1C(=O)O)c1cc(F)cc2c(=O)n(C)c(-c3cnc(OC4CC(F)C4)c(F)c3)cc12` (centres unmarked) [Example 388], the pEC50 is 6.30 to 9.00.

Turning to `C[C@@H](Nc1cccc(F)c1C(=O)O)c1cc(F)cc2c(=O)n(C)c(-c3cnc(OC4CC4)c(F)c3)cc12` [Example 390], the pEC50 is 6.30 to 9.00.

Regarding `Cc1cc([C@@H](C)Nc2ccccc2C(=O)O)c2cc(-c3cnc(OC4CC4)cn3)n(C)c(=O)c2c1` [Example 394], the pEC50 was 6.30 to 9.00.

As for `Cc1cc([C@@H](C)Nc2ccccc2C(=O)O)c2cc(-c3cnc(C(C)(F)F)cn3)n(C)c(=O)c2c1` [Example 395], the pEC50 was 6.30 to 9.00.

In the next experiment the test system is SKBR3 cells express WT PI3Ka. As to the kind of experiment: In vitro cell proliferation, SKBR3 cells (CellTiter-Glo). The experiment is classed as cell-based. The conditions noted are these: Homo sapiens, SK-BR-3, 72 h, inhibition of proliferation. An outline of the steps: as §1
Background: Cellular ATP, detected with luciferase, serves as a proxy for viable cell number.
`Cc1cc([C@@H](C)Nc2ccc(Cl)nc2C(=O)O)c2cc(-c3cnc(C(F)(F)F)nc3)n(C)c(=O)c2c1` [Example 376] had a pEC50 of less than 4.82.

Compound `C[C@@H](Nc1ccccc1C(=O)O)c1cc(F)cc2c(=O)n(C)c(-c3cnc(-c4ccc(F)cn4)c(F)c3)cc12` [Example 378] showed a negative logarithm of the EC50 (pEC50) of less than 4.82.

`C[C@@H](Nc1cccc(F)c1C(=O)O)c1cc(F)cc2c(=O)n(C)c(-c3ccc(OC4CC4)nc3)cc12` [Example 379] gave a pEC50 of less than 4.82.

In turn, `Cc1cc([C@@H](C)Nc2ccccc2C(=O)O)c2cc(-c3cnc(C(F)(F)F)cn3)n(C)c(=O)c2c1` [Example 382] had a negative-log EC50 (pEC50) of less than 4.82.

`Cc1cc([C@@H](C)Nc2ccccc2C(=O)O)c2cc(-c3ncc(C(F)(F)F)cn3)n(C)c(=O)c2c1` [Example 383] had a pEC50 of less than 4.82.

As to `Cc1cc([C@@H](C)Nc2ccccc2C(=O)O)c2cc(-c3cnc(CF)cn3)n(C)c(=O)c2c1` [Example 393], the pEC50 is less than 4.82.

The experiment is the same for the next values; noted with them: inhibition of proliferation, 72 hours.
Consider `C#Cc1ccc(N[C@H](C)c2cc(C)cc3c(=O)n(C)c(-c4cnc(C(F)(F)F)nc4)cc23)c(C(=O)O)n1` [Example 375], for which the negative-log EC50 (pEC50) is less than 4.82.

In turn, `Cc1cc([C@@H](C)Nc2cnc(Cl)nc2C(=O)O)c2cc(N3CCN(CC(F)(F)F)CC3)n(C)c(=O)c2c1` [Example 377] gave a pEC50 of less than 4.82.

For the compound `Cc1cc([C@@H](C)Nc2ccccc2C(=O)O)c2cc(N3CCN(c4ccc(CF)nc4)CC3)n(C)c(=O)c2c1` [Example 381], the negative logarithm of the EC50 (pEC50) was 4.82 to 5.70.

In the case of `Cc1cc([C@@H](C)Nc2ccc(F)nc2C(=O)O)c2cc(-c3cnc(C(F)(F)F)nc3)n(C)c(=O)c2c1` [Example 387], the pEC50 is less than 4.82.

As for `CC(Nc1cccc(F)c1C(=O)O)c1cc(F)cc2c(=O)n(C)c(-c3cnc(OC4CC(F)C4)c(F)c3)cc12` (centres unmarked) [Example 388], the pEC50 is less than 4.82.

Consider `C[C@@H](Nc1cccc(F)c1C(=O)O)c1cc(F)cc2c(=O)n(C)c(-c3cnc(OC4CC4)c(F)c3)cc12` [Example 390], for which the pEC50 was less than 4.82.

With `Cc1cc([C@@H](C)Nc2ccccc2C(=O)O)c2cc(-c3cnc(OC4CC4)cn3)n(C)c(=O)c2c1` [Example 394], the pEC50 is less than 4.82.

`Cc1cc([C@@H](C)Nc2ccccc2C(=O)O)c2cc(-c3cnc(C(C)(F)F)cn3)n(C)c(=O)c2c1` [Example 395]: the pEC50 was less than 4.82.

The test system of another experiment is phosphorylation of AKT (pAKT) in T47D cells expressing mutant PI3Ka (H1047R). As to the kind of experiment: In vitro cell pAKT (Ser473) HTRF, T47D cells. Format: cell-based. The note with it: Homo sapiens, T47D, 6 h, cellular pAKT, T47D cells, mutant PI3Ka (H1047R), 6 hours; read-out: Avg T-47D IC50. A digest of the protocol: (§2)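 pAKT (Ser473) was quantified by HTRF in lysates from cells exposed 6 h at 37 °C to 10-point compound series, with T47D in insulin-supplemented RPMI/10% FBS and SKBR3 in McCoy's 5a/10% FBS. Controls: 0.1% DMSO (high) and 10 uM alpelisib (low). IC50 from sigmoidal curve fitting.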
(In general: TR-FRET usually uses a lanthanide donor and a delayed reading to cut background.)
Consider `Cc1cc([C@@H](C)Nc2ccc(Cl)nc2C(=O)O)c2cc(-c3cnc(C(F)(F)F)nc3)n(C)c(=O)c2c1` [Example 376], for which the pIC50 is 6.30 to 9.00.

For the compound `C[C@@H](Nc1ccccc1C(=O)O)c1cc(F)cc2c(=O)n(C)c(-c3cnc(-c4ccc(F)cn4)c(F)c3)cc12` [Example 378], the pIC50 was 6.30 to 9.00.

`C[C@@H](Nc1cccc(F)c1C(=O)O)c1cc(F)cc2c(=O)n(C)c(-c3ccc(OC4CC4)nc3)cc12` [Example 379]: the negative logarithm of the IC50 (pIC50) was 6.30 to 9.00.

For `Cc1cc([C@@H](C)Nc2ccccc2C(=O)O)c2cc(-c3cnc(C(F)(F)F)cn3)n(C)c(=O)c2c1` [Example 382], the pIC50 was 6.30 to 9.00.

As for `Cc1cc([C@@H](C)Nc2ccccc2C(=O)O)c2cc(-c3ncc(C(F)(F)F)cn3)n(C)c(=O)c2c1` [Example 383], the pIC50 is 6.30 to 9.00.

As for `Cc1cc([C@@H](C)Nc2ccccc2C(=O)O)c2cc(-c3cnc(CF)cn3)n(C)c(=O)c2c1` [Example 393], the pIC50 was 6.30 to 9.00.

The same experiment, now with this note: cellular pAKT, T47D cells, mutant PI3Ka (H1047R), 6 hours; read-out: Avg T-47D IC50.
On to `C#Cc1ccc(N[C@H](C)c2cc(C)cc3c(=O)n(C)c(-c4cnc(C(F)(F)F)nc4)cc23)c(C(=O)O)n1` [Example 375], for which the pIC50 was 6.30 to 9.00.

Turning to `Cc1cc([C@@H](C)Nc2cnc(Cl)nc2C(=O)O)c2cc(N3CCN(CC(F)(F)F)CC3)n(C)c(=O)c2c1` [Example 377], the pIC50 was 4.82 to 5.70.

`Cc1cc([C@@H](C)Nc2ccccc2C(=O)O)c2cc(N3CCN(c4ccc(CF)nc4)CC3)n(C)c(=O)c2c1` [Example 381]: the pIC50 is 6.30 to 9.00.

Regarding `Cc1cc([C@@H](C)Nc2ccc(F)nc2C(=O)O)c2cc(-c3cnc(C(F)(F)F)nc3)n(C)c(=O)c2c1` [Example 387], the negative-log IC50 (pIC50) was 5.70 to 6.30.

Turning to `CC(Nc1cccc(F)c1C(=O)O)c1cc(F)cc2c(=O)n(C)c(-c3cnc(OC4CC(F)C4)c(F)c3)cc12` (centres unmarked) [Example 388], the negative logarithm of the IC50 (pIC50) was 6.30 to 9.00.

Turning to `C[C@@H](Nc1cccc(F)c1C(=O)O)c1cc(F)cc2c(=O)n(C)c(-c3cnc(OC4CC4)c(F)c3)cc12` [Example 390], the pIC50 was 6.30 to 9.00.

In the case of `Cc1cc([C@@H](C)Nc2ccccc2C(=O)O)c2cc(-c3cnc(OC4CC4)cn3)n(C)c(=O)c2c1` [Example 394], the pIC50 was 6.30 to 9.00.

As to `Cc1cc([C@@H](C)Nc2ccccc2C(=O)O)c2cc(-c3cnc(C(C)(F)F)cn3)n(C)c(=O)c2c1` [Example 395], the negative logarithm of the IC50 (pIC50) was 6.30 to 9.00.

In the next experiment the test system is phosphorylation of AKT (pAKT) in SKBR3 cells express WT PI3Ka. As to the kind of experiment: In vitro cell pAKT (Ser473) HTRF, SKBR3 cells. The conditions noted are these: Homo sapiens, SK-BR-3, 6 h, cellular pAKT. The experiment is classed as cell-based. An outline of the steps:
as §2
In turn, `Cc1cc([C@@H](C)Nc2ccc(Cl)nc2C(=O)O)c2cc(-c3cnc(C(F)(F)F)nc3)n(C)c(=O)c2c1` [Example 376] gave a pIC50 of 4.82 to 5.70.

`C[C@@H](Nc1ccccc1C(=O)O)c1cc(F)cc2c(=O)n(C)c(-c3cnc(-c4ccc(F)cn4)c(F)c3)cc12` [Example 378]: the pIC50 was less than 4.82.

`C[C@@H](Nc1cccc(F)c1C(=O)O)c1cc(F)cc2c(=O)n(C)c(-c3ccc(OC4CC4)nc3)cc12` [Example 379] gave a pIC50 of less than 4.82.

Regarding `Cc1cc([C@@H](C)Nc2ccccc2C(=O)O)c2cc(-c3cnc(C(F)(F)F)cn3)n(C)c(=O)c2c1` [Example 382], the pIC50 is less than 4.82.

With `Cc1cc([C@@H](C)Nc2ccccc2C(=O)O)c2cc(-c3ncc(C(F)(F)F)cn3)n(C)c(=O)c2c1` [Example 383], the pIC50 was less than 4.82.

For `Cc1cc([C@@H](C)Nc2ccccc2C(=O)O)c2cc(-c3cnc(CF)cn3)n(C)c(=O)c2c1` [Example 393], the pIC50 was less than 4.82.

The experiment is the same for the next values; noted with them: cellular pAKT, 6 hours.
As to `C#Cc1ccc(N[C@H](C)c2cc(C)cc3c(=O)n(C)c(-c4cnc(C(F)(F)F)nc4)cc23)c(C(=O)O)n1` [Example 375], the pIC50 is less than 4.82.

`Cc1cc([C@@H](C)Nc2cnc(Cl)nc2C(=O)O)c2cc(N3CCN(CC(F)(F)F)CC3)n(C)c(=O)c2c1` [Example 377] gave a pIC50 of less than 4.82.

Turning to `Cc1cc([C@@H](C)Nc2ccccc2C(=O)O)c2cc(N3CCN(c4ccc(CF)nc4)CC3)n(C)c(=O)c2c1` [Example 381], the pIC50 is 4.82 to 5.70.

With `Cc1cc([C@@H](C)Nc2ccc(F)nc2C(=O)O)c2cc(-c3cnc(C(F)(F)F)nc3)n(C)c(=O)c2c1` [Example 387], the pIC50 was less than 4.82.

With `CC(Nc1cccc(F)c1C(=O)O)c1cc(F)cc2c(=O)n(C)c(-c3cnc(OC4CC(F)C4)c(F)c3)cc12` (centres unmarked) [Example 388], the pIC50 is less than 4.82.

Consider `C[C@@H](Nc1cccc(F)c1C(=O)O)c1cc(F)cc2c(=O)n(C)c(-c3cnc(OC4CC4)c(F)c3)cc12` [Example 390], for which the negative logarithm of the IC50 (pIC50) is less than 4.82.

Take `Cc1cc([C@@H](C)Nc2ccccc2C(=O)O)c2cc(-c3cnc(OC4CC4)cn3)n(C)c(=O)c2c1` [Example 394]: the negative-log IC50 (pIC50) was less than 4.82.

Compound `Cc1cc([C@@H](C)Nc2ccccc2C(=O)O)c2cc(-c3cnc(C(C)(F)F)cn3)n(C)c(=O)c2c1` [Example 395] had a pIC50 of less than 4.82.

Broadly, the pEC50 is the EC50 on a negative log10 scale, so that one unit is a factor of ten. Broadly, the pIC50 is the negative decadic logarithm of the IC50, by convention in mol/L.
